Key:
[1] = system: epiphyseal chondrocytes; assay: BrdU proliferation in ex vivo cultured epiphyseal cartilage of 4-day-old rats; assay type: cell-based; conditions: for proliferation of epiphyseal chondrocytes (BrdU): ex vivo rat epiphyseal cartilage
Experimental: After taking out the cultured epiphyseal cartilage from 4-day-old rats and culturing them ex vivo, the cartilage tissues are given GPER-1 agonists at concentrations of 0.1, 0.5, 1, and 2 μM to activate the GPER-1 of chondrocytes. Subsequently, the amount of proliferating cells in living cells is detected using Bromodeoxyuridine (5-bromo-2′-deoxyuridine, BrdU).

[2] = system: mice; assay: Growth plate cartilage structure in mice, Safranin O staining; assay type: in vivo; conditions: subcutaneous injection from 2 weeks old
Experimental: From 2 weeks old, mice are administered GPER-1 agonists at concentrations of 10^−8 g/kg, 10^−6 g/kg, and 10^−4 g/kg through subcutaneous injection to activate GPER-1. Safranin O staining is employed to label cartilage tissue for the analysis of growth plate cartilage structure. The growth plate cartilage is categorized into the resting zone (RZ), proliferation zone (PZ), and hypertrophy zone (HZ).

CC(=O)c1ccc2c(c1)[C@H]1C=CC[C@H]1[C@@H](c1cc3c(cc1Br)OCO3)N2 (racemic) [GPER-1 agonist, (±)-1-[(3aR*,4S*,9bS*)-4-(6-Bromo-1,3-benzodioxol-5-yl)-3a,4,5,9b-tetrahydro-3H-cyclopenta[c]quinolin-8-yl]-ethenone]
proliferation of rat chondrocytes ([1]; concentrations ranging from 0.1 to 1 μM (summary statement)): can promote | proliferation of epiphyseal chondrocytes (BrdU) ([1]; 0.1 μM): significantly promote | proliferation of epiphyseal chondrocytes (BrdU) ([1]; 0.5 μM): significantly promote | thickness of the proliferative zone of the growth plate ([2]; 10^−4 g/kg): effectively promote | thickness of the whole growth plate ([2]; 10^−4 g/kg): effectively promote | thickness of the proliferative zone of the growth plate ([2]; 10^−6 g/kg): effectively promote | thickness of the whole growth plate ([2]; 10^−6 g/kg): effectively promote

— patent US20250295649A1, “METHOD FOR PROMOTING ELONGATION OF LONG BONE DURING CHILDHOOD TO ADOLESCENCE BY GPER-1 ACTIVATION VARIANT” (Kaohsiung Medical University, priority 2024, published 2025)
